Experimental data published in patent US6737383B1, “Herbicidal oxadiazolidines” (priority 1999, dated 2004).

Columns and labels:
bedstraw = assay: Test B pre/postemergence bedstraw; type: in vivo, Galium aparine; conditions: Preemergence; for Plant response rating, Bedstraw: Rate 62 g/ha, scale of 0 to 10 where 0 is no effect and 10 is complete control; for Bedstraw plant response rating: scale 0 to 10, 0 is no effect, 10 is complete control
From the text: (§1) Seeds of bedstraw (Galium aparine), blackgrass (Alopecurus myosuroides), surinam grass (Brachiaria decumbens), cocklebur (Xanthium strumarium), corn (Zea mays), crabgrass (Digitaria sanguinalis), giant foxtail (Setaria faberii), morningglory (Ipomoea hederacea), pigweed (Amaranthus retroflexus), rape (Brassica napus), soybean (Glycine max), sugar beet (Beta vulgaris), velvetleaf (Abutilon theophrasti), wheat (Triticum aestivum), wild oat (Avena fatua) and purple nutsedge (Cyperus rotundus) tubers were planted and treated preemnergence with test chemicals formulated in a non-phytotoxic solvent mixture which included a surfactant.
(§2) At the same time, these crop and weed species were also treated with postemergence applications of test chemicals formulated in the same manner. Plants ranged in height from 2 to 18 cm (1- to 4-leaf stage) for postemergence treatments. Plant species in the flood test consisted of rice (Oryza sativa), smallflower flatsedge (Cyperus difformis), duck salad (Heteranthera limosa) and bamyardgrass (Echinochloa crus-galli) grown to the 2-leaf stage for testing. Treated plants and controls were maintained in a greenhouse for twelve to sixteen days, after which all species were compared to controls and visually evaluated. Plant response ratings, summarized in Table B, are based on a scale of 0 to 10 where 0 is no effect and 10 is complete control. A dash (−) response means no test result.

blackgrass = assay: Test B pre/postemergence blackgrass; type: in vivo, Alopecurus myosuroides
From the text: as §1, §2

surinam grass = assay: Test B pre/postemergence surinam grass; type: in vivo, Brachiaria decumbens
From the text: as §1, §2

cocklebur = assay: Test B pre/postemergence cocklebur; type: in vivo, Xanthium strumarium
From the text: as §1, §2

corn = assay: Test B pre/postemergence corn; type: in vivo, Zea mays
From the text: as §1, §2

crabgrass = assay: Test B pre/postemergence crabgrass; type: in vivo, Digitaria sanguinalis
In short: (§3)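 Herbicidal effect was estimated by eye on a ten-point control scale after plants spent twelve to sixteen days in a greenhouse following soil or foliar treatment. Foliar sprays targeted plants at one to four leaves; all doses were formulated in a non-phytotoxic solvent with surfactant.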

giant foxtail = assay: Test B pre/postemergence giant foxtail; type: in vivo, Setaria faberii
From the text: as §1, §2

morningglory = assay: Test B pre/postemergence morningglory; type: in vivo, Ipomoea hederacea
From the text: as §1, §2

pigweed = assay: Test B pre/postemergence pigweed; type: in vivo, Amaranthus retroflexus
In short: as §3

rape = assay: Test B pre/postemergence rape; type: in vivo, Brassica napus
From the text: as §1, §2

soybean = assay: Test B pre/postemergence soybean; type: in vivo, Glycine max
From the text: as §1, §2

sugar beet = assay: Test B pre/postemergence sugar beet; type: in vivo, Beta vulgaris
From the text: as §1, §2

velvetleaf = assay: Test B pre/postemergence velvetleaf; type: in vivo, Abutilon theophrasti
From the text: as §1, §2

wheat = assay: Test B pre/postemergence wheat; type: in vivo, Triticum aestivum
From the text: as §1, §2

wild oat = assay: Test B pre/postemergence wild oat; type: in vivo, Avena fatua
From the text: as §1, §2

purple nutsedge = assay: Test B pre/postemergence purple nutsedge; type: in vivo, Cyperus rotundus
From the text: as §1, §2

[1] = Postemergence, Rate 62 g/ha, scale of 0 to 10, 0 is no effect, 10 is complete control
[2] = Postemergence, Rate 125 g/ha, scale 0 to 10, 0 is no effect, 10 is complete control
[3] = Postemergence, Rate 250 g/ha, scale 0 to 10
[4] = Postemergence, Rate 500 g/ha, scale 0 to 10, 0 is no effect, 10 is complete control
[5] = Preemergence, Rate 62 g/ha, scale of 0 to 10 where 0 is no effect and 10 is complete control
[6] = Preemergence, Rate 125 g/ha, scale 0 to 10, 0 is no effect, 10 is complete control
[7] = Preemergence, Rate 250 g/ha, scale 0 to 10, 0 is no effect, 10 is complete control
[8] = Preemergence, Rate 500 g/ha, scale of 0 to 10 where 0 is no effect and 10 is complete control
[9] = Postemergence, Rate 250 g/ha, scale 0 to 10, 0 no effect, 10 complete control
[10] = Preemergence, Rate 500 g/ha, scale 0 to 10, 0 is no effect, 10 is complete control

CC(C)N(C(=O)n1oc(=O)n(CCc2ccccc2)c1=O)c1ccc(F)cc1F [Compound 508]
Plant response rating, Bedstraw (bedstraw): 0
Bedstraw plant response rating (bedstraw; Rate 125 g/ha): 0
Bedstraw plant response rating (bedstraw; Rate 250 g/ha): 0
Bedstraw plant response rating (bedstraw; Rate 500 g/ha): 0
Blackgrass plant response rating (blackgrass; [1]): 0
Blackgrass plant response rating (blackgrass; [2]): 3
Blackgrass plant response rating (blackgrass; [3]): 6
Plant response rating, Blackgrass (blackgrass; [4]): 6
Plant response rating, Blackgrass (blackgrass; [5]): 1
Blackgrass plant response rating (blackgrass; [6]): 3
Blackgrass plant response rating (blackgrass; [7]): 5
Blackgrass plant response rating (blackgrass; [8]): 8
B. signalgrass plant response rating (surinam grass; [1]): 0
B. signalgrass plant response rating (surinam grass; [2]): 0
B. signalgrass plant response rating (surinam grass; [9]): 3
Plant response rating, B. signalgrass (surinam grass; [4]): 3
Plant response rating, B. signalgrass (surinam grass; [5]): 4
B. signalgrass plant response rating (surinam grass; [6]): 7
B. signalgrass plant response rating (surinam grass; [7]): 8
B. signalgrass plant response rating (surinam grass; [10]): 8
Cocklebur plant response rating (cocklebur; [1]): 0
Cocklebur plant response rating (cocklebur; [2]): 1
Cocklebur plant response rating (cocklebur; [3]): 4
Plant response rating, Cocklebur (cocklebur; [4]): 4
Plant response rating, Cocklebur (cocklebur; [5]): 0
Cocklebur plant response rating (cocklebur; [6]): 0
Cocklebur plant response rating (cocklebur; [7]): 0
Cocklebur plant response rating (cocklebur; [8]): 0
Corn plant response rating (corn; [1]): 0
Corn plant response rating (corn; [2]): 0
Corn plant response rating (corn; [3]): 0
Plant response rating, Corn (corn; [4]): 3
Plant response rating, Corn (corn; [5]): 0
Corn plant response rating (corn; [6]): 0
Corn plant response rating (corn; [8]): 4
Crabgrass plant response rating (crabgrass; [1]): 9
Crabgrass plant response rating (crabgrass; [2]): 9
Crabgrass plant response rating (crabgrass; [3]): 9
Plant response rating, Crabgrass (crabgrass; [4]): 9
Plant response rating, Crabgrass (crabgrass; [5]): 6
Crabgrass plant response rating (crabgrass; [6]): 9
Crabgrass plant response rating (crabgrass; [8]): 10
Giant foxtail plant response rating (giant foxtail; [1]): 8
Giant foxtail plant response rating (giant foxtail; [2]): 8
Plant response rating, Giant foxtail (giant foxtail; [4]): 8
Plant response rating, Giant foxtail (giant foxtail; [5]): 10
Giant foxtail plant response rating (giant foxtail; [6]): 10
Giant foxtail plant response rating (giant foxtail; [8]): 10
Morningglory plant response rating (morningglory; [1]): 3
Morningglory plant response rating (morningglory; [2]): 3
Plant response rating, Morningglory (morningglory; [4]): 7
Plant response rating, Morningglory (morningglory; [5]): 0
Morningglory plant response rating (morningglory; [6]): 0
Morningglory plant response rating (morningglory; [8]): 0
Redroot pigweed plant response rating (pigweed; [1]): 3
Redroot pigweed plant response rating (pigweed; [2]): 7
Plant response rating, Redroot pigweed (pigweed; [4]): 9
Plant response rating, Redroot pigweed (pigweed; [5]): 7
Redroot pigweed plant response rating (pigweed; [6]): 8
Redroot pigweed plant response rating (pigweed; [8]): 10
Rape plant response rating (rape; [1]): 1
Rape plant response rating (rape; [2]): 5
Plant response rating, Rape (rape; [4]): 8
Plant response rating, Rape (rape; [5]): 0
Rape plant response rating (rape; [6]): 0
Rape plant response rating (rape; [8]): 3
Soybean plant response rating (soybean; [1]): 4
Soybean plant response rating (soybean; [2]): 4
Plant response rating, Soybean (soybean; [4]): 5
Plant response rating, Soybean (soybean; [5]): 0
Soybean plant response rating (soybean; [6]): 0
Soybean plant response rating (soybean; [8]): 0
Sugarbeets plant response rating (sugar beet; [1]): 0
Sugarbeets plant response rating (sugar beet; [2]): 1
Plant response rating, Sugarbeets (sugar beet; [4]): 9
Plant response rating, Sugarbeets (sugar beet; [5]): 1
Sugarbeets plant response rating (sugar beet; [6]): 1
Sugarbeets plant response rating (sugar beet; [8]): 6
Velvetleaf plant response rating (velvetleaf; [1]): 0
Velvetleaf plant response rating (velvetleaf; [2]): 1
Plant response rating, Velvetleaf (velvetleaf; [4]): 2
Plant response rating, Velvetleaf (velvetleaf; [5]): 0
Velvetleaf plant response rating (velvetleaf; [6]): 0
Velvetleaf plant response rating (velvetleaf; [8]): 0
Wheat plant response rating (wheat; [1]): 0
Wheat plant response rating (wheat; [2]): 0
Plant response rating, Wheat (wheat; [4]): 0
Plant response rating, Wheat (wheat; [5]): 0
Wheat plant response rating (wheat; [6]): 0
Wheat plant response rating (wheat; [8]): 2
Wild oats plant response rating (wild oat; [1]): 0
Wild oats plant response rating (wild oat; [2]): 0
Plant response rating, Wild oats (wild oat; [4]): 4
Plant response rating, Wild oats (wild oat; [5]): 3
Wild oats plant response rating (wild oat; [6]): 4
Wild oats plant response rating (wild oat; [8]): 7
Plant response rating, Nutsedge (purple nutsedge; [4]): 0

C=CCCCn1c(=O)on(C(=O)N(c2ccc(F)cc2F)C(C)C)c1=O [Compound 516]
Plant response rating, Bedstraw (bedstraw): 0
Bedstraw plant response rating (bedstraw; Rate 125 g/ha): 0
Bedstraw plant response rating (bedstraw; Rate 250 g/ha): 1
Bedstraw plant response rating (bedstraw; Rate 500 g/ha): 7
Blackgrass plant response rating (blackgrass; [1]): 0
Blackgrass plant response rating (blackgrass; [2]): 4
Blackgrass plant response rating (blackgrass; [3]): 7
Plant response rating, Blackgrass (blackgrass; [4]): 7
Plant response rating, Blackgrass (blackgrass; [5]): 3
Blackgrass plant response rating (blackgrass; [6]): 5
Blackgrass plant response rating (blackgrass; [7]): 8
Blackgrass plant response rating (blackgrass; [8]): 10
B. signalgrass plant response rating (surinam grass; [1]): 0
B. signalgrass plant response rating (surinam grass; [2]): 0
B. signalgrass plant response rating (surinam grass; [9]): 3
Plant response rating, B. signalgrass (surinam grass; [4]): 5
Plant response rating, B. signalgrass (surinam grass; [5]): 1
B. signalgrass plant response rating (surinam grass; [6]): 5
B. signalgrass plant response rating (surinam grass; [7]): 9
B. signalgrass plant response rating (surinam grass; [10]): 10
Cocklebur plant response rating (cocklebur; [1]): 2
Cocklebur plant response rating (cocklebur; [2]): 3
Cocklebur plant response rating (cocklebur; [3]): 3
Plant response rating, Cocklebur (cocklebur; [4]): 5
Plant response rating, Cocklebur (cocklebur; [5]): 0
Cocklebur plant response rating (cocklebur; [6]): 0
Cocklebur plant response rating (cocklebur; [7]): 0
Cocklebur plant response rating (cocklebur; [8]): 0
Corn plant response rating (corn; [1]): 0
Corn plant response rating (corn; [2]): 0
Corn plant response rating (corn; [3]): 0
Plant response rating, Corn (corn; [4]): 0
Plant response rating, Corn (corn; [5]): 0
Corn plant response rating (corn; [6]): 0
Corn plant response rating (corn; [8]): 0
Crabgrass plant response rating (crabgrass; [1]): 3
Crabgrass plant response rating (crabgrass; [2]): 9
Plant response rating, Crabgrass (crabgrass; [4]): 9
Plant response rating, Crabgrass (crabgrass; [5]): 6
Crabgrass plant response rating (crabgrass; [6]): 9
Crabgrass plant response rating (crabgrass; [8]): 10
Giant foxtail plant response rating (giant foxtail; [1]): 0
Giant foxtail plant response rating (giant foxtail; [2]): 5
Plant response rating, Giant foxtail (giant foxtail; [4]): 9
Plant response rating, Giant foxtail (giant foxtail; [5]): 10
Giant foxtail plant response rating (giant foxtail; [6]): 10
Giant foxtail plant response rating (giant foxtail; [8]): 10
Morningglory plant response rating (morningglory; [1]): 2
Morningglory plant response rating (morningglory; [2]): 3
Plant response rating, Morningglory (morningglory; [4]): 7
Plant response rating, Morningglory (morningglory; [5]): 0
Morningglory plant response rating (morningglory; [6]): 0
Morningglory plant response rating (morningglory; [8]): 0
Redroot pigweed plant response rating (pigweed; [1]): 4
Plant response rating, Redroot pigweed (pigweed; [4]): 8
Plant response rating, Redroot pigweed (pigweed; [5]): 7
Redroot pigweed plant response rating (pigweed; [8]): 10
Rape plant response rating (rape; [1]): 1
Rape plant response rating (rape; [2]): 4
Plant response rating, Rape (rape; [4]): 9
Plant response rating, Rape (rape; [5]): 0
Rape plant response rating (rape; [6]): 1
Rape plant response rating (rape; [8]): 9
Soybean plant response rating (soybean; [1]): 4
Soybean plant response rating (soybean; [2]): 4
Plant response rating, Soybean (soybean; [4]): 7
Plant response rating, Soybean (soybean; [5]): 0
Soybean plant response rating (soybean; [6]): 0
Soybean plant response rating (soybean; [8]): 0
Sugarbeets plant response rating (sugar beet; [1]): 0
Sugarbeets plant response rating (sugar beet; [2]): 0
Plant response rating, Sugarbeets (sugar beet; [4]): 8
Plant response rating, Sugarbeets (sugar beet; [5]): 1
Sugarbeets plant response rating (sugar beet; [6]): 3
Sugarbeets plant response rating (sugar beet; [8]): 7
Velvetleaf plant response rating (velvetleaf; [1]): 3
Velvetleaf plant response rating (velvetleaf; [2]): 4
Plant response rating, Velvetleaf (velvetleaf; [4]): 4
Plant response rating, Velvetleaf (velvetleaf; [5]): 0
Velvetleaf plant response rating (velvetleaf; [8]): 7
Wheat plant response rating (wheat; [1]): 0
Wheat plant response rating (wheat; [2]): 1
Plant response rating, Wheat (wheat; [4]): 7
Plant response rating, Wheat (wheat; [5]): 0
Wheat plant response rating (wheat; [6]): 0
Wheat plant response rating (wheat; [8]): 5
Wild oats plant response rating (wild oat; [1]): 0
Wild oats plant response rating (wild oat; [2]): 2
Plant response rating, Wild oats (wild oat; [4]): 5
Plant response rating, Wild oats (wild oat; [5]): 0
Wild oats plant response rating (wild oat; [6]): 5
Wild oats plant response rating (wild oat; [8]): 9
Nutsedge plant response rating (purple nutsedge; [1]): 0
Nutsedge plant response rating (purple nutsedge; [2]): 0
Plant response rating, Nutsedge (purple nutsedge; [5]): 0
Nutsedge plant response rating (purple nutsedge; [6]): 0
Nutsedge plant response rating (purple nutsedge; [8]): 0
